Laboratory results published in paper PMC5513037, “Examining the influence of specificity ligands and ATP-competitive ligands on the overall effectiveness of bivalent kinase inhibitors” (Proteome Science, 2017).

Columns and labels:
Assay in all cases: Dasatinib-matrix competition in K562 lysate
Conditions in all cases: residual binding 50 value; read-out: RB50 (the source's name)
OBSCN = molecular target: T1, OBSCN (Homo sapiens, UniProt Q5VST9)
T1 construct: endogenous in cells; host or cells: K562

SMG1 = molecular target: T2, SMG1 (Homo sapiens, UniProt Q96Q15)
T2 construct: endogenous in cells; host or cells: K562

PIK3R4 = molecular target: T3, PIK3R4 (Homo sapiens, UniProt Q99570)
T3 construct: endogenous in cells; host or cells: K562

ATR = molecular target: T4, ATR (Homo sapiens, UniProt Q13535)
T4 construct: endogenous in cells; host or cells: K562

TKT = molecular target: T5, TKT (Homo sapiens, UniProt P29401)
T5 construct: endogenous in cells; host or cells: K562

ATM = ATM (Homo sapiens, UniProt Q13315); parameters: endogenous in cells; host or cells: K562
N-TAF1 = molecular target: T6, N-TAF1 (Homo sapiens, UniProt P21675)
T6 construct: endogenous in cells; host or cells: K562

TEX14 = molecular target: T7, TEX14 (Homo sapiens, UniProt Q8IWB6)
T7 construct: endogenous in cells; host or cells: K562

TTN = molecular target: T8, TTN (Homo sapiens, UniProt Q8WZ42)
T8 construct: endogenous in cells; host or cells: K562

SPEG = molecular target: T9, SPEG (Homo sapiens, UniProt Q15772)
T9 construct: endogenous in cells; host or cells: K562

T3 sequence (Q99570 2-1358 limits assumed): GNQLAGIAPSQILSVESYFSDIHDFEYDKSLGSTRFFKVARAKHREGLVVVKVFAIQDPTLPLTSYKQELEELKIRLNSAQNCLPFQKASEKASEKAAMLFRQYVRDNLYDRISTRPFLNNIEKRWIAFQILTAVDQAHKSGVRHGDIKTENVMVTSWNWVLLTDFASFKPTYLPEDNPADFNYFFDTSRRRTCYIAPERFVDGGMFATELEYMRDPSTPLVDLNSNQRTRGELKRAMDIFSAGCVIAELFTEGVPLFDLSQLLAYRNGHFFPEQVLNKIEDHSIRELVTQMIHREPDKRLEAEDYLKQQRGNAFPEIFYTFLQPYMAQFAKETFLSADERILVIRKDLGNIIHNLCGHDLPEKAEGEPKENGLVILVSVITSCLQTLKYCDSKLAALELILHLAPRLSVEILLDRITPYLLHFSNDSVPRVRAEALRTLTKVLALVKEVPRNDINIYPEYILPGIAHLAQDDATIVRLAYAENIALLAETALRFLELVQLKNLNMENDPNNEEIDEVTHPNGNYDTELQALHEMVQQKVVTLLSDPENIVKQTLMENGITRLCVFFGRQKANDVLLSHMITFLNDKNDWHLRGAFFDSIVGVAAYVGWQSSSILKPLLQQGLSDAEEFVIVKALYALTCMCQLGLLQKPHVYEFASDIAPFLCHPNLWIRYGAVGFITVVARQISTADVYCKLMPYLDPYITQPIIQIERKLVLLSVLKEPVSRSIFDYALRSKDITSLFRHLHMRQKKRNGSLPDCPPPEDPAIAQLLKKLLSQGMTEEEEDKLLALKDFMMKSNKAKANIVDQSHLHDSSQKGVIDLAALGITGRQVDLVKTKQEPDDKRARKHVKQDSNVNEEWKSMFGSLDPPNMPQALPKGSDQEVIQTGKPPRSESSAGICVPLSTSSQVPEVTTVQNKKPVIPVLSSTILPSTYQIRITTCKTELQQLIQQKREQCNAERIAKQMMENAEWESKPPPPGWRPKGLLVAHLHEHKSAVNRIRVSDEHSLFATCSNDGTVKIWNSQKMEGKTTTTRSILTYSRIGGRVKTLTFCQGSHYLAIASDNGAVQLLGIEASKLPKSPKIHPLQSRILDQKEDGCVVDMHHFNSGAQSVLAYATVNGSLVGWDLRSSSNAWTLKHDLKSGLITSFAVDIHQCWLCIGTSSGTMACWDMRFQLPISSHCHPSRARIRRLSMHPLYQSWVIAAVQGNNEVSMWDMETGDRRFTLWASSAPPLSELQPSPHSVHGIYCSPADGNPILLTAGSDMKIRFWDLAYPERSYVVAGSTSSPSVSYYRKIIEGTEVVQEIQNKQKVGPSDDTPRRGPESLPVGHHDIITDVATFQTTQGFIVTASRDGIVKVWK
T3 sequence (Q8NEB9 whole entry partner): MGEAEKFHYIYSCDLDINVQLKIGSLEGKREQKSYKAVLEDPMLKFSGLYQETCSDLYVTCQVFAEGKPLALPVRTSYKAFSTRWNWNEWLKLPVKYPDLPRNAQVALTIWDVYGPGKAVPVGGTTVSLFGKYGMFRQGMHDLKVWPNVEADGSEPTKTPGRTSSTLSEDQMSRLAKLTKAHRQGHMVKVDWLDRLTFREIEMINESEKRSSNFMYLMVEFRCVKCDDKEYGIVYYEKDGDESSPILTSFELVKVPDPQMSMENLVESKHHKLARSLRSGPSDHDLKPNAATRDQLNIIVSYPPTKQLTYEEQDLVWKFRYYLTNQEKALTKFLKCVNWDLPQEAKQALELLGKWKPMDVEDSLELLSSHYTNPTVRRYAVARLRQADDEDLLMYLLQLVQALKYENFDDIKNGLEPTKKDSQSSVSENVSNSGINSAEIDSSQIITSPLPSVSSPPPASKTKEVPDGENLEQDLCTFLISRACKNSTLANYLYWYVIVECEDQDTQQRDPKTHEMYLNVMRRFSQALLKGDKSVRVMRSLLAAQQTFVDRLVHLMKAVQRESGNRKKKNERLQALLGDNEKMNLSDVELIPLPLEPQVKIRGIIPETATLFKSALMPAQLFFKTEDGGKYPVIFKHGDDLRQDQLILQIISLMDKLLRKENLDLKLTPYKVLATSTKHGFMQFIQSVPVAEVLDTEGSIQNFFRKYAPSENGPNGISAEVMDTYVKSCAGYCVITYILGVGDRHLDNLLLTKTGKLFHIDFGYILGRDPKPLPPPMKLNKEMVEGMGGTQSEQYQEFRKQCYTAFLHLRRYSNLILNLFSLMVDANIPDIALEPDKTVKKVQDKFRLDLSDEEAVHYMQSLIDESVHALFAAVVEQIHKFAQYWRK
T6 sequence (P21675 1-1895 isoform P21675-17): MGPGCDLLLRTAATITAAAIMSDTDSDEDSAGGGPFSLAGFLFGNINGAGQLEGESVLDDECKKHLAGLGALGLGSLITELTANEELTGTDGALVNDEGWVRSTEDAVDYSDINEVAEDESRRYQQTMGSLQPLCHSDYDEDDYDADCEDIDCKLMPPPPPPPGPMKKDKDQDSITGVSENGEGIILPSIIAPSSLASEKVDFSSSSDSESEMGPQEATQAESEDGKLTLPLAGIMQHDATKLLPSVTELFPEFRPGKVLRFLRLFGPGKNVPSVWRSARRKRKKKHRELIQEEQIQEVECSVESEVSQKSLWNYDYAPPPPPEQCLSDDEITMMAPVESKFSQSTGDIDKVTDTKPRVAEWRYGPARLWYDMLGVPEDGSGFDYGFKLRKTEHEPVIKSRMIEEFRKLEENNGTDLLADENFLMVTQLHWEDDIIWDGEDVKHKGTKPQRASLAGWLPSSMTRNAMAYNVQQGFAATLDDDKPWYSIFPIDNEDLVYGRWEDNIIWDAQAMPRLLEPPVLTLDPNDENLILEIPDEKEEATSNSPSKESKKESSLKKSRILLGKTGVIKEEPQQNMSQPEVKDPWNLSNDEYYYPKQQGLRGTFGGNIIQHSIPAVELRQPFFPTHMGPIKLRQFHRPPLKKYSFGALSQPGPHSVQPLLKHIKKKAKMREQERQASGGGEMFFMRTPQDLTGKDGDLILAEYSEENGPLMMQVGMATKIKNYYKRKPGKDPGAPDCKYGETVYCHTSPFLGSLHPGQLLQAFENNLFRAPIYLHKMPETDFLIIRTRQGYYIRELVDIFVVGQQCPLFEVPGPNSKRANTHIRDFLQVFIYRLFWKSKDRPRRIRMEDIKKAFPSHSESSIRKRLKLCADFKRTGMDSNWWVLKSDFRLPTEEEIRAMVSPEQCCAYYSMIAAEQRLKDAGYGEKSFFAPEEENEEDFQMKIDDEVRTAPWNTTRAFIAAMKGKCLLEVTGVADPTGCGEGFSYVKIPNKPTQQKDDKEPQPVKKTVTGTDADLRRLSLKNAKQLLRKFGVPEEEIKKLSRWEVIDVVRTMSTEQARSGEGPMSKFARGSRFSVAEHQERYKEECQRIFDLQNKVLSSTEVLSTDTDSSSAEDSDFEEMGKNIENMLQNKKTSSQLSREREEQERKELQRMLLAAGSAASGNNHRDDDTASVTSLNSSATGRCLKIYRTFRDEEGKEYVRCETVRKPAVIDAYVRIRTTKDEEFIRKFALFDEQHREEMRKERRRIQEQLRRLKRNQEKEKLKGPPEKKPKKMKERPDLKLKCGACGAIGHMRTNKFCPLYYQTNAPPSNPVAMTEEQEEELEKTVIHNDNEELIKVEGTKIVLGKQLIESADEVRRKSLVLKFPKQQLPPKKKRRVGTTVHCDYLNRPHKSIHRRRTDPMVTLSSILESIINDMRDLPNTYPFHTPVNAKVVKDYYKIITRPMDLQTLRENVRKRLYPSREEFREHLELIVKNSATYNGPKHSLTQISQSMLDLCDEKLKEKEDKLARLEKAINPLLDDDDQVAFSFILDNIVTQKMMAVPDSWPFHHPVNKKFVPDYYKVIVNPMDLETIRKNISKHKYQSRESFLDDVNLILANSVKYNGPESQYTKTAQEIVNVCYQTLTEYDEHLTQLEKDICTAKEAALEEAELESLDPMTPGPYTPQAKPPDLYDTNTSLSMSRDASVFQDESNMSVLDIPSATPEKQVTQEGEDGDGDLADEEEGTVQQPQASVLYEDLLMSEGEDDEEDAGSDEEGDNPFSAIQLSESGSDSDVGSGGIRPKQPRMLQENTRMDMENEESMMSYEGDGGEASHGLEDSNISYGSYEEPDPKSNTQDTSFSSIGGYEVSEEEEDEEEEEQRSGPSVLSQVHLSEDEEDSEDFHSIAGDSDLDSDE
T5 sequence (P29401 whole entry): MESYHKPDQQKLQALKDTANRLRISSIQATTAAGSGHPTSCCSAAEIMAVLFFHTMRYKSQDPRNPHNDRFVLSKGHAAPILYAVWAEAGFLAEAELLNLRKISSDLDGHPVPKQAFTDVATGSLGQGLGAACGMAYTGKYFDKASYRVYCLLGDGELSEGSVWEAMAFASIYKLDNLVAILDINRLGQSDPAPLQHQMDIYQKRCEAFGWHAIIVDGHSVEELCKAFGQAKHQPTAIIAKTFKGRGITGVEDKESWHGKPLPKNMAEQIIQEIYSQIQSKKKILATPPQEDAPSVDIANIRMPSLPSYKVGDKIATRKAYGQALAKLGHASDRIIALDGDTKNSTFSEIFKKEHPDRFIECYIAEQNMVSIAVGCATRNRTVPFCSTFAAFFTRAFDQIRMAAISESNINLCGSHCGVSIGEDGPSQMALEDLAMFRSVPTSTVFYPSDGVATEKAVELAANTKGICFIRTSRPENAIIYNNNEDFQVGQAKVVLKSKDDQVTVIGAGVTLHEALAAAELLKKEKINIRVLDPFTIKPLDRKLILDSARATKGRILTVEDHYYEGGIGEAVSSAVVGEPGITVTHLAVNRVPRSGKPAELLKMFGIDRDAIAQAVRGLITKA

For `Cc1nc(Nc2ncc(C(=O)Nc3c(C)cccc3Cl)s2)cc(N2CCN(CCO)CC2)n1` [Dasatinib], which IC50 (OBSCN) is on record?
The IC50 was over 10 µM.

What about the IC50 (SMG1) of the same molecule?
Its IC50 is over 10 µM.

What about the IC50 (PIK3R4) of the same molecule?
The IC50 was over 10 µM.

And the IC50 (ATR)?
Its IC50 is over 10 µM.

And the IC50 (TKT)?
Its IC50 is over 10 µM.

And the IC50 (ATM)?
The IC50 was over 10 µM.

And the IC50 (N-TAF1)?
Its IC50 is 9.66 µM.

And the IC50 (TEX14)?
The IC50 was over 10 µM.

What about the IC50 (TTN) of the same molecule?
Its IC50 is over 10 µM.

And the IC50 (SPEG)?
Its IC50 is over 10 µM.
